Here are results for 27 compounds from US20240101570A1 (AMGEN INC., priority 2020, published 2024).

The subject of assay [1] is HCT116 WT cells. The experiment in a line: HCT116 WT cell proliferation / viability (CellTiter-Glo, 6 days). Type of assay: cell-based. Particulars: Homo sapiens, HCT-116, 144 h, HCT116 WT cells, 6 days, CellTiter-Glo; read-out: HCT-116 WT IC50. In short, it runs like this:
(§1)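 CellTiter-Glo luminescence, 6-day exposure, RPMI 1640 + 10% FBS. Dosing: 1:3 series (8-9 pts, top 1 or 10 μM) or 1:2 series (22 pts, top 10 or 50 μM), DMSO control. IC50 = 50% of control via curve fit.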
Background: Cellular ATP, detected with luciferase, serves as a proxy for viable cell number.

In assay [2] the test system is HCT116 MTAP null cells. The experiment in a line: HCT116 MTAP null cell proliferation / viability (CellTiter-Glo, 6 days). Particulars: HCT116-MTAP null, 144 h, HCT116 MTAP null cells, 6 days, CellTiter-Glo; read-out: HCT-116 MTAP null IC50. Format: cell-based. In short, it runs like this:
as §1

On to `CC(C)CN(Cc1ccc(C(F)(F)F)nn1)C(=O)c1cc2c3c(c(N)nc2cn1)COC3` [Example 670, 4-amino-N-(2-methylpropyl)-N-((6-(trifluoromethyl)-3-pyridazinyl)methyl)-1,3-dihydrofuro[3,4-c][1,7]naphthyridine-8-carboxamide], for which the results for the IC50 in assay [1] and in assay [2] were 8020 nM and 170 nM, respectively.

As for `Nc1nc2cnc(C(=O)N(Cc3ccc(Br)nn3)CC3CC3)cc2c2c1COC2` [Example 671, 4-amino-N-((6-bromo-3-pyridazinyl)methyl)-N-(cyclopropylmethyl)-1,3-dihydrofuro[3,4-c][1,7]naphthyridine-8-carboxamide], the IC50 in assay [1] is 3970 nM; in assay [2], 80 nM.

As for `CCOc1ccc(CN(CC(C)C)C(=O)c2cc3c4c(c(N)nc3cn2)COC4)nn1` [Example 672, 4-amino-N-((6-ethoxy-3-pyridazinyl)methyl)-N-(2-methylpropyl)-1,3-dihydrofuro[3,4-c][1,7]naphthyridine-8-carboxamide], the figures for the IC50 in assay [1] and in assay [2] were 7460 nM and 145 nM, respectively.

Regarding `C[C@H](c1ncccn1)N(Cc1ccc(Br)nn1)C(=O)c1cc2c3c(c(N)nc2cn1)COC3` [Example 673, 4-amino-N-((6-bromo-3-pyridazinyl)methyl)-N-((1R)-1-(2-pyrimidinyl)ethyl)-1,3-dihydrofuro[3,4-c][1,7]naphthyridine-8-carboxamide], the results for the half-maximal inhibitory concentration (IC50) in assay [1] and in assay [2] were 3260 nM and 110 nM, respectively.

As to `Nc1nc2ccc(C(=O)N(Cc3ccc(Br)nn3)CC3CC3)cc2c2c1COC2` [Example 674, 4-amino-N-((6-bromo-3-pyridazinyl)methyl)-N-(cyclopropylmethyl)-1,3-dihydrofuro[3,4-c]quinoline-8-carboxamide], the IC50 in assay [1] worked out at 2580 nM; in assay [2], 73 nM.

For `CC(C)N(Cc1ccc(C(F)(F)F)cn1)C(=O)c1cc2c3c(c(N)nc2cn1)COC3` [Example 675, 4-amino-N-(2-propanyl)-N-((5-(trifluoromethyl)-2-pyridinyl)methyl)-1,3-dihydrofuro[3,4-c][1,7]naphthyridine-8-carboxamide], the IC50 in assay [1] was found to be 12700 nM; in assay [2] it was 66 nM.

In the case of `C[C@H](c1ncccn1)N(Cc1ccc(Cl)nn1)C(=O)c1ccc2nc(N)c3c(c2c1)COC3` [Example 676, 4-amino-N-((6-chloro-3-pyridazinyl)methyl)-N-((1R)-1-(2-pyrimidinyl)ethyl)-1,3-dihydrofuro[3,4-c]quinoline-8-carboxamide], the IC50 is 316 nM in assay [1] and 12 nM in assay [2].

On to `Cc1nc(CN(C)C(=O)c2ccc3nc(N)c4c(c3c2)COC4)ccc1Br` [Example 677, 4-amino-N-((5-bromo-6-methyl-2-pyridinyl)methyl)-N-methyl-1,3-dihydrofuro[3,4-c]quinoline-8-carboxamide], for which the IC50 in assay [1] was above 10000 nM; in assay [2], 243 nM.

For `CC(C)N(Cc1ccc(OC(F)(F)F)cn1)C(=O)c1ccc2nc(N)c3c(c2c1)COC3` [Example 678, 4-amino-N-(2-propanyl)-N-((5-(trifluoromethoxy)-2-pyridinyl)methyl)-1,3-dihydrofuro[3,4-c]quinoline-8-carboxamide], the values for the IC50 in assay [1] and in assay [2] were 1180 nM and 40 nM, respectively.

With `C[C@H](c1ncccn1)N(Cc1ccc(C#N)c(Cl)n1)C(=O)c1ccc2nc(N)c3c(c2c1)COC3` [Example 679, 4-amino-N-((6-chloro-5-cyano-2-pyridinyl)methyl)-N-((1R)-1-(2-pyrimidinyl)ethyl)-1,3-dihydrofuro[3,4-c]quinoline-8-carboxamide], the IC50 in assay [1] is 108 nM; in assay [2], 5 nM.

Turning to `COC[C@@H](C)N(Cc1ccc(Br)nn1)C(=O)c1cc2c3c(c(N)nc2cn1)COC3` [Example 680, 4-amino-N-((6-bromo-3-pyridazinyl)methyl)-N-((2R)-1-methoxy-2-propanyl)-1,3-dihydrofuro[3,4-c][1,7]naphthyridine-8-carboxamide], the IC50 was 2840 nM in assay [1] and 91 nM in assay [2].

Take `COC[C@@H](C)N(Cc1ccc(Br)nn1)C(=O)c1cnc2nc(N)c3c(c2c1)COC3` [Example 681, 4-amino-N-((6-bromo-3-pyridazinyl)methyl)-N-((2R)-1-methoxy-2-propanyl)-1,3-dihydrofuro[3,4-c][1,8]naphthyridine-8-carboxamide]: the figures for the IC50 in assay [1] and in assay [2] were 6490 nM and 367 nM, respectively.

Take `N#Cc1ccc(CN(CC2CC2)C(=O)c2cc3c4c(c(N)nc3cn2)COC4)nc1` [Example 682, 4-amino-N-((5-cyano-2-pyridinyl)methyl)-N-(cyclopropylmethyl)-1,3-dihydrofuro[3,4-c][1,7]naphthyridine-8-carboxamide]: the IC50 in assay [1] worked out at 3400 nM; in assay [2] it was 87 nM.

Consider `COc1ccc(CN(C(=O)c2cc3c4c(c(N)nc3cn2)COC4)C(C)C)nc1Cl` [Example 683, 4-amino-N-((6-chloro-5-methoxy-2-pyridinyl)methyl)-N-(2-propanyl)-1,3-dihydrofuro[3,4-c][1,7]naphthyridine-8-carboxamide], for which the values for the IC50 in assay [1] and in assay [2] were above 10000 nM and 235 nM, respectively.

For `CC(C)N(Cc1ccc(Br)nn1)C(=O)c1cc2c3c(c(N)nc2cn1)COC3` [Example 684, 4-amino-N-((6-bromo-3-pyridazinyl)methyl)-N-(2-propanyl)-1,3-dihydrofuro[3,4-c][1,7]naphthyridine-8-carboxamide], the IC50 in assay [1] is above 10000 nM; in assay [2], 342 nM.

In the case of `COc1nc(CN(C(=O)c2cc3c4c(c(N)nc3cn2)COC4)C(C)C)ccc1Cl` [Example 685, 4-amino-N-((5-chloro-6-methoxy-2-pyridinyl)methyl)-N-(2-propanyl)-1,3-dihydrofuro[3,4-c][1,7]naphthyridine-8-carboxamide], the IC50 in assay [1] is above 10000 nM; in assay [2] it was 201 nM.

For `C[C@H](c1ncccn1)N(Cc1cc2c(cn1)OCCC2)C(=O)c1cc2c3c(c(N)nc2cn1)COC3` [Example 686, 4-amino-N-(3,4-dihydro-2H-pyrano[2,3-c]pyridin-6-ylmethyl)-N-((1R)-1-(2-pyrimidinyl)ethyl)-1,3-dihydrofuro[3,4-c][1,7]naphthyridine-8-carboxamide], the IC50 was 8800 nM in assay [1] and 445 nM in assay [2].

As to `Nc1nc2cnc(C(=O)N(Cc3ccc(C(F)(F)F)nn3)CC3CC3)cc2c2c1COC2` [Example 688, 4-amino-N-(cyclopropylmethyl)-N-((6-(trifluoromethyl)-3-pyridazinyl)methyl)-1,3-dihydrofuro[3,4-c][1,7]naphthyridine-8-carboxamide], the values for the IC50 in assay [1] and in assay [2] were 3440 nM and 81 nM, respectively.

Consider `Nc1nc2cnc(C(=O)N(Cc3ccc(C(F)(F)F)cn3)C34CC(C3)C4)cc2c2c1COC2` [Example 689, 4-amino-N-(bicyclo[1.1.1]pentan-1-yl)-N-((5-(trifluoromethyl)-2-pyridinyl)methyl)-1,3-dihydrofuro[3,4-c][1,7]naphthyridine-8-carboxamide], for which the IC50 was 2580 nM in assay [1] and 96 nM in assay [2].

As to `Nc1nc2cnc(C(=O)N(Cc3ccc(C(F)(F)F)cn3)c3cnn(C4CC4)c3)cc2c2c1COC2` [Example 690, 4-amino-N-(1-cyclopropyl-1H-pyrazol-4-yl)-N-((5-(trifluoromethyl)-2-pyridinyl)methyl)-1,3-dihydrofuro[3,4-c][1,7]naphthyridine-8-carboxamide], the IC50 in assay [1] was 4170 nM; in assay [2], 71 nM.

Take `Cn1cc(N(Cc2ccc(C(F)F)cn2)C(=O)c2cc3c4c(c(N)nc3cn2)COC4)cn1` [Example 691, 4-amino-N-((5-(difluoromethyl)-2-pyridinyl)methyl)-N-(1-methyl-1H-pyrazol-4-yl)-1,3-dihydrofuro[3,4-c][1,7]naphthyridine-8-carboxamide]: the values for the IC50 in assay [1] and in assay [2] were 3880 nM and 127 nM, respectively.

With `CN(Cc1ccc(C(F)(F)F)cc1)C(=O)c1cc2c3c(c(N)nc2cn1)COC3` [Example 692, 4-amino-N-methyl-N-(4-(trifluoromethyl)benzyl)-1,3-dihydrofuro[3,4-c][1,7]naphthyridine-8-carboxamide], the 50% inhibitory concentration (IC50) in assay [1] was above 10000 nM; in assay [2] it was 449 nM.

`CN(Cc1ccc(C(F)(F)F)nc1)C(=O)c1cc2c3c(c(N)nc2cn1)COC3` [Example 693, 4-amino-N-methyl-N-((6-(trifluoromethyl)-3-pyridinyl)methyl)-1,3-dihydrofuro[3,4-c][1,7]naphthyridine-8-carboxamide]: the IC50 in assay [1] was above 10000 nM; in assay [2] it was 2020 nM.

Take `CN(Cc1ccc(Cl)cn1)C(=O)c1cc2c3c(c(N)nc2cn1)COC3` [Example 694, 4-amino-N-((5-chloro-2-pyridinyl)methyl)-N-methyl-1,3-dihydrofuro[3,4-c][1,7]naphthyridine-8-carboxamide]: the IC50 in assay [1] was above 10000 nM; in assay [2], 415 nM.

Regarding `CCN(Cc1ccc(C(F)(F)F)nn1)C(=O)c1ccc2nc(N)c3c(c2c1)COC3` [Example 695, 4-amino-N-ethyl-N-((6-(trifluoromethyl)-3-pyridazinyl)methyl)-1,3-dihydrofuro[3,4-c]quinoline-8-carboxamide], the IC50 in assay [1] was 4990 nM; in assay [2], 210 nM.

On to `CCN(Cc1ccc(C(F)(F)F)nn1)C(=O)c1cc2c3c(c(N)nc2cn1)COC3` [Example 696, 4-amino-N-ethyl-N-((6-(trifluoromethyl)-3-pyridazinyl)methyl)-1,3-dihydrofuro[3,4-c][1,7]naphthyridine-8-carboxamide], for which the IC50 in assay [1] was above 10000 nM; in assay [2] it was 261 nM.

Turning to `CCN(Cc1ccc(Cl)cn1)C(=O)c1cc2c3c(c(N)nc2cn1)COC3` [Example 698, 4-amino-N-((5-chloro-2-pyridinyl)methyl)-N-ethyl-1,3-dihydrofuro[3,4-c][1,7]naphthyridine-8-carboxamide], the IC50 was 4500 nM in assay [1] and 206 nM in assay [2].

One may read the IC50 as the midpoint of a concentration-inhibition curve.
